Test results published in patent US20240180872A1, “METHODS AND COMPOUNDS OF CANNABIDIOL, MELATONIN AND AKBA FOR TREATING PANCREATIC CANCER” (priority 2021, published 2024).

Tests used:
[1] = test system: U251 Glioblastoma cell line; experiment: Cytotoxicity assay (MTT, 72 hours, daily administration) in U251; type: cell-based; conditions: Homo sapiens, U-251, read-out: % VIABILITY ± S.D.
From the text: (§1) The combinations were effective in other human tumor cell lines and we tested in glioblastoma cell line and endometrial cancer cell Additional tests include data obtained from two independent experiments, six wells for dose.

[2] = test system: PCEM004a endometrial cancer cell line; experiment: Cytotoxicity assay (MTT, 72 hours, daily administration) in PCEM004a; type: cell-based; conditions: Homo sapiens, read-out: % VIABILITY ± S.D.
From the text: as §1

[3] = test system: pancreatic adenocarcinoma associated genes; experiment: TaqMan Array gene expression in PANC-1, normalized for GAPDH; conditions: 24 hs, CBD 3.8, MLT 200, AKBA 7.5 micrograms/ml
Protocol: Total RNA from untreated or CBD, MLT, AKBA alone and in combination treated cell lines was extracted using Rneasy Mini kit (Qiagen, Milan, Italy). One microgram of total RNA from each sample was subjected to reverse transcription in a total volume of 20 μL using the High-Capacity cDNA Archive Kit (Applied Biosystem, Foster City, […], USA) according to the instructions. cDNAs were analyzed by qRT-PCR performed using an IQ5 Multicolor Real time PCR Detection system. Quantitative real-time gene expression was performed with the TaqMan® Array Human Pancreatic Adenocarcinoma 96-well Plate, containing 92 assays to pancreatic adenocarcinoma associated genes and 4 assays to candidate endogenous control genes, was purchased (Thermo Fisher, Grand Island, NY, USA) and used to evaluate the treatments in modulating PDAC-related genes (Table 1). Measurement of different housekeeping genes (GAPDH; HPRT1; GUSB) on the samples was used to normalize mRNA content. The gene expression levels of treated cell lines were expressed as relative fold compared with untreated or vehicle-treated cells.
To elucidate the molecular events induced by CBD, MLT and AKBA alone and in combination, 92 genes involved in PDAC progression and aggressiveness were evaluated by Taqman Array. Both cell lines were treated with CBD, MLT and AKBA alone and in combination, and the molecular pathways of PDAC associated gene were evaluated.
Target mRNA levels were normalized for GAPDH expression.

PANC-1 cell line = experiment: Cytotoxicity assay (MTT, 72 hours, daily administration) in PANC-1; conditions: Homo sapiens, PANC-1, read-out: % VIABILITY ± S.D.
Protocol: (§2) Human pancreatic ductal adenocarcinoma (PANC-1 and MIAPaCa-2) cell lines were purchased by Sigma Aldrich (Milan, Italy) and cultured in DMEM high glucose medium (EuroClone, Milan, Italy) supplemented with 10% of fetal bovine serum (FBS), 2 mM L-glutamine, 100 IU/mL penicillin, 100 mg streptomycin and 1 mM sodium pyruvate. Cell lines were maintained at 37° C. with 5% CO2 and 95% of humidity.
(§3) 3×10^4 cells/mL were seeded in 96-well plates in a final volume of 100 L/well. After one day of incubation, compounds or vehicles, alone or in combination, were added and six replicates were used for each treatment and all experiments were repeated three times. In all the experiments, the treatment was daily added, after washing with fresh medium. After 72 hours cell viability was investigated by adding 0.8 mg/mL of 3-[4,5-dimethylthiazol-2-yl]-2,5 diphenyl tetrazolium bromide (MTT) (Sigma Aldrich) to the media. After 3 h the supernatant was removed, and the pellet of salt crystals was solubilized with 100 μL/well of DMSO. The absorbance of the sample against a background control was measured at 570 nm using an ELISA reader microliter plate (BioTek Instruments, Winooski, VT, USA).
(§4) Cytotoxicity in PDAC cell lines: The effect of CBD, MLT and AKBA in reducing cell viability was evaluated at 72 hours, post daily administration, in PDAC cell lines. Cells were treated with different doses of CBD, MLT and AKBA (up to 1 mg) and percentage of cell viability was evaluated by the MTT assay. […] The compounds were administered daily for 72 hours, as in previous experiments at the desired doses. […] MTT assay was used to analyse the cell cytotoxicity.

MIAPaCa-2 cell line = experiment: Cytotoxicity assay (MTT, 72 hours, daily administration) in MIAPaCa-2; conditions: Homo sapiens, MIA PaCa-2, read-out: % VIABILITY ± S.D.
Protocol: as §2, §3, §4

## C=C(C)[C@@H]1CCC(C)=C[C@H]1c1c(O)cc(CCCCC)cc1O [CBD, 2-[(1R,6R)-3-methyl-6-prop-1-en-2-ylcyclohex-2-en-1-yl]-5-pentylbenzene-1,3-diol]
[1]; CBD 1.9 micrograms/ml
  viability at 1.9 µg/mL: 100 ± 7.1%
[1]; CBD 3.8 micrograms/ml
  viability at 3.8 µg/mL: 100 ± 5.5%
[1]; CBD 7.6 micrograms/ml
  viability at 7.6 µg/mL: 97 ± 10.1%
[1]; CBD 15.2 micrograms/ml
  viability at 15.2 µg/mL: 65.2 ± 4.3%
[2]; CBD 1.9 micrograms/ml
  viability at 1.9 µg/mL: 74.8 ± 7.2%
[2]; CBD 3.8 micrograms/ml
  viability at 3.8 µg/mL: 93.2 ± 4.2%
[2]; CBD 7.6 micrograms/ml
  viability at 7.6 µg/mL: 93.4 ± 5.4%
[2]; CBD 15.2 micrograms/ml
  viability at 15.2 µg/mL: 50.4 ± 3.4%
[3]; VEI 0.00
  AKT3 mRNA relative expression: 0.00
  ARHGEF7 mRNA relative expression: 0.00
  BCL2 mRNA relative expression: 0.00
  CCND2 mRNA relative expression: 0.00
  CDKN2B mRNA relative expression: 0.35
  CYP2E1 mRNA relative expression: 0.00
  EGF mRNA relative expression: 0.00
  IGF1 mRNA relative expression: 0.00
  IL6 mRNA relative expression: 0.00
  KDR mRNA relative expression: 0.00
  KIT mRNA relative expression: 0.00
  MAPK3 mRNA relative expression: 0.01
  MMP1 mRNA relative expression: 0.00
  MMP3 mRNA relative expression: 0.00
  TGFA mRNA relative expression: 0.71
  TGFB2 mRNA relative expression: 0.08
[3]; VEI 0.01
  JAK2 mRNA relative expression: 0.01
  JAK3 mRNA relative expression: 0.01
  MMP7 mRNA relative expression: 0.01
  MMP9 mRNA relative expression: 0.01
  PK3CA mRNA relative expression: 0.02
  RAC2 mRNA relative expression: 0.01
  RB1 mRNA relative expression: 0.05
  TGFB3 mRNA relative expression: 0.00
[3]; VEI 0.02
  TGFBR1 mRNA relative expression: 0.03
[3]; VEI 0.03
  BRCA2 mRNA relative expression: 0.13
  CDKN2D mRNA relative expression: 0.03
  MDM2 mRNA relative expression: 0.04
  RHOB mRNA relative expression: 0.03
[3]; VEI 0.04
  CDKN2C mRNA relative expression: 0.03
  PK3R1 mRNA relative expression: 0.03
  PTGS2 mRNA relative expression: 0.00
  STATSB mRNA relative expression: 0.03
[3]; VEI 0.05
  MAPK1 mRNA relative expression: 0.06
  SMAD2 mRNA relative expression: 0.06
[3]; VEI 0.06
  CCND1 mRNA relative expression: 0.09
  MAP2K2 mRNA relative expression: 0.07
  PK3CD mRNA relative expression: 0.07
  TGFBR2 mRNA relative expression: 0.01
  VEGFA mRNA relative expression: 0.03
  VEGFB mRNA relative expression: 0.07
[3]; VEI 0.07
  CCNA2 mRNA relative expression: 0.01
  CCNE2 mRNA relative expression: 0.10
  EZF3 mRNA relative expression: 0.07
  SMAD4 mRNA relative expression: 0.07
  SOS1 mRNA relative expression: 0.06
  TGFB1 mRNA relative expression: 0.07
[3]; VEI 0.08
  MAP2K1 mRNA relative expression: 0.00
  MMP2 mRNA relative expression: 0.06
  VEGFC mRNA relative expression: 0.03
[3]; VEI 0.09
  CCNE1 mRNA relative expression: 0.08
  CDK2 mRNA relative expression: 0.13
  KRAS mRNA relative expression: 0.07
  RAC1 mRNA relative expression: 0.09
  REL mRNA relative expression: 0.10
  STAT2 mRNA relative expression: 0.03
[3]; VEI 0.10
  CDKN1B mRNA relative expression: 0.09
  CDKN2A mRNA relative expression: 0.22
  RELA mRNA relative expression: 0.06
[3]; VEI 0.11
  AKT1 mRNA relative expression: 0.09
  PK3CB mRNA relative expression: 0.08
[3]; VEI 0.14
  FIGF mRNA relative expression: 0.09
  TP53 mRNA relative expression: 0.24
[3]; VEI 0.16
  EZF4 mRNA relative expression: 0.16
  NFKB2 mRNA relative expression: 0.12
[3]; VEI 0.17
  EZF1 mRNA relative expression: 0.13
  SMAD3 mRNA relative expression: 0.16
[3]; VEI 0.18
  STAT1 mRNA relative expression: 0.10
[3]; VEI 0.22
  BRAF mRNA relative expression: 0.18
[3]; VEI 0.23
  BIRC5 mRNA relative expression: 0.09
  JAK1 mRNA relative expression: 0.22
[3]; VEI 0.24
  CDK4 mRNA relative expression: 0.21
  EGFR mRNA relative expression: 0.17
[3]; VEI 0.25
  RAF1 mRNA relative expression: 0.01
[3]; VEI 0.27
  CCNB1 mRNA relative expression: 0.31
  ERBB2 mRNA relative expression: 0.01
  SRC mRNA relative expression: 0.03
[3]; VEI 0.31
  GRB2 mRNA relative expression: 0.11
[3]; VEI 0.35
  BCL2L1 mRNA relative expression: 0.21
  HSP90AA1 mRNA relative expression: 0.35
  NFKB1 mRNA relative expression: 0.04
[3]; VEI 0.37
  RHOA mRNA relative expression: 0.30
[3]; VEI 0.41
  ELK1 mRNA relative expression: 0.07
[3]; VEI 0.42
  RELB mRNA relative expression: 0.23
[3]; VEI 0.45
  CDC42 mRNA relative expression: 0.04
[3]; VEI 0.49
  CDKN1A mRNA relative expression: 0.03
[3]; VEI 0.50
  AKT2 mRNA relative expression: 0.45
[3]; VEI 0.53
  HBEGF mRNA relative expression: 0.11
[3]; VEI 1.03
  NOTCH1 mRNA relative expression: 0.02
[3]; VEI 1.38
  STAT6 mRNA relative expression: 0.87
[3]; VEI 4.45
  STAT3 mRNA relative expression: 0.05
PANC-1 cell line
  viability at 1.9 µg/mL: 86.5 ± 7.1%
  viability at 3.8 µg/mL: 66.4 ± 5.5%
  viability at 7.6 µg/mL: 13.1 ± 1.1%
  viability at 15.2 µg/mL: 7.9 ± 0.3%
MIAPaCa-2 cell line
  viability at 1.9 µg/mL: 74.8 ± 7.2%
  viability at 3.8 µg/mL: 29.5 ± 1.9%
  viability at 7.6 µg/mL: 9.2 ± 0.4%
  viability at 15.2 µg/mL: 5.2 ± 0.4%
